Experimental findings from patent US20260116920A1, “HUMAN TRANSFERRIN RECEPTOR BINDING PEPTIDE” (PEPTIDREAM INC., priority 2021, published 2026) are described below.

Starred links: 1 amine or outer side, 2 acyl side, 3 side chain; linkers in the order of their positions; H or OH if unused. Positions of bridges follow the written chain, without caps; N, C: chain ends. Non-standard residues stand in square brackets, D forms with d. Residues, ends and D or L forms follow the SMILES beside them. *: point of attachment. Trp(1-CH2COOH) = N[C@@H](Cc1cn(CC(=O)O)c2ccccc12)C(=O)O; NMePhe(4-COOH) = CN[C@@H](Cc1ccc(C(=O)O)cc1)C(=O)O; X1 = O=C([C@H](Cc1cccc(C(=O)[*:3])c1)N[*:1])[*:2]; Nle(6-morpholino) = N[C@@H](CCCCN1CCOCC1)C(=O)O; Phe(3-COOH) = N[C@@H](Cc1cccc(C(=O)O)c1)C(=O)O; Trp(7-aza) = N[C@@H](Cc1c[nH]c2ncccc12)C(=O)O; NH(CH2CH2O)8Me = COCCOCCOCCOCCOCCOCCOCCOCCN*; NMePhe(3-Cl) = CN[C@@H](Cc1cccc(Cl)c1)C(=O)O; 3Pal(6-NH2) = Nc1ccc(C[C@H](N)C(=O)O)cn1; X2 = COCCOCCOCCOCCOCCOCCOCCOCCNC(=O)C*; NMeY = CN[C@@H](Cc1ccc(O)cc1)C(=O)O; 4Pal = N[C@@H](Cc1ccncc1)C(=O)O; PEG4 = NCCOCCOCCOCCOCCC(=O)O; Carboxymethyl = O=C(O)C*

What is called Kd is a measure of binding affinity in units of concentration.

The target in the assay is T1, human transferrin receptor (hTfR) (Homo sapiens, UniProt P02786).
T1 construct: made in house
T1 sequence (P02786 89-760 limits assumed): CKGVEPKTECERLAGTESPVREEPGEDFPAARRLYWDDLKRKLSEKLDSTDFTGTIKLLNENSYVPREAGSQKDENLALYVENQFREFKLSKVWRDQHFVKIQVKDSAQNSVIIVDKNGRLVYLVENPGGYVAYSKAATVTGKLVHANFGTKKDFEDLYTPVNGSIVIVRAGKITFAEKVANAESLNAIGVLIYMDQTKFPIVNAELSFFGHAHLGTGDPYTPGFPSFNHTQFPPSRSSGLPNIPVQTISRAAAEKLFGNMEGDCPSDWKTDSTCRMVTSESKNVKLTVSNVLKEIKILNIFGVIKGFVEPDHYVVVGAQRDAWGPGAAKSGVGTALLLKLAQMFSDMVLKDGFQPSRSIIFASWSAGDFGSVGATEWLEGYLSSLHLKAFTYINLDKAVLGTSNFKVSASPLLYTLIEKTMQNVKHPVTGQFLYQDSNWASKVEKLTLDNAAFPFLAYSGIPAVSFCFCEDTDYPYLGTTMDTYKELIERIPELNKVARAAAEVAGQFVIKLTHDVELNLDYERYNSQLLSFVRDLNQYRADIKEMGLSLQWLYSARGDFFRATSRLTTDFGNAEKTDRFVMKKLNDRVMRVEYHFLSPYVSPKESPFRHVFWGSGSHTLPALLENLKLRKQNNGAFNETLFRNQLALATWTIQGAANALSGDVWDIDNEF
Nature of the assay: Evaluation of molecular interaction between transferrin receptor (hTfR) and peptide using surface plasmon resonance (SPR). Type of assay: binding. The conditions noted are these: peptide with linker, surface plasmon resonance; read-out: SPR (KD class for binding to hTfR). The essentials: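 Steps: NTA chip loaded with NiCl2, activated with EDC/NHS, coated with 0.5 μM hTfR dimer, capped with ethanolamine. Peptides diluted from DMSO stock into running buffer (pH 8.0, 1.0% DMSO) at 5–100 nM and injected in single-cycle mode. Sensorgrams fitted to give KD.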

As to `CC[C@H](C)[C@@H]1NC(=O)[C@H](Cc2ccc(OCC(=O)O)cc2)NC(=O)[C@H](Cc2ccc(O)cc2)NC(=O)[C@H](CC(N)=O)NC(=O)[C@H](Cc2cn(CC(=O)O)c3ccccc23)NC(=O)[C@H](C(C)C)NC(=O)[C@H](Cc2cccc(Cl)c2)N(C)C(=O)[C@H](C(C)C)NC(=O)[C@H](C)NC(=O)CSC[C@@H](C(=O)NCCOCCOCCOCCOCCC(N)=O)NC(=O)[C@H](Cc2ccc(O)cc2)N(C)C(=O)[C@H](Cc2ccncc2)NC(=O)[C@H](CCCCN2CCOCC2)NC(=O)[C@H](CCC(=O)NCCOCCOCCOCCOCCOCCOCCOCCOC)NC(=O)[C@H]([C@@H](C)CC)NC1=O` [compound 219], the Kd was in the range of 1 to 100 nM.
The figure for `CC[C@H](C)[C@@H]1NC(=O)[C@H](Cc2ccc(OCC(=O)O)cc2)NC(=O)[C@H](Cc2ccc(O)cc2)NC(=O)[C@H](CC(N)=O)NC(=O)[C@H](Cc2c[nH]c3ncccc23)NC(=O)[C@H](C(C)C)NC(=O)[C@H](Cc2cccc(Cl)c2)N(C)C(=O)[C@H](C(C)C)NC(=O)[C@H](C)NC(=O)CSC[C@@H](C(=O)NCCOCCOCCOCCOCCC(N)=O)NC(=O)[C@H](Cc2ccc(O)cc2)N(C)C(=O)[C@H](Cc2cccc(C(=O)O)c2)NC(=O)[C@H](CCCCN2CCOCC2)NC(=O)[C@H](CCC(=O)NCCOCCOCCOCCOCCOCCOCCOCCOC)NC(=O)[C@H]([C@@H](C)CC)NC1=O` [compound 220] ({CH2CO}-AV[NMePhe(3-Cl)]V[Trp(7-aza)]NYY(Carboxymethyl)IIE(NH(CH2CH2O)8Me)[Nle(6-morpholino)][Phe(3-COOH)][NMeY]C[PEG4]-NH2; thioether N-15) is 1 to 100 nM.
Consider `CC[C@H](C)[C@@H]1NC(=O)[C@H](Cc2ccc(OCC(=O)O)cc2)NC(=O)[C@H](Cc2ccc(O)cc2)NC(=O)[C@H](CC(N)=O)NC(=O)[C@H](Cc2c[nH]c3ncccc23)NC(=O)[C@H](C(C)C)NC(=O)[C@H](Cc2cccc(Cl)c2)N(C)C(=O)[C@H](C(C)C)NC(=O)[C@H](C)NC(=O)CSC[C@@H](C(=O)NCCOCCOCCOCCOCCC(N)=O)NC(=O)[C@H](Cc2ccc(O)cc2)N(C)C(=O)[C@H](CCC(=O)NCCOCCOCCOCCOCCOCCOCCOCCOC)NC(=O)[C@H](CCCNC(=N)N)NC(=O)[C@H](CCC(=O)NCCOCCOCCOCCOCCOCCOCCOCCOC)NC(=O)[C@H]([C@@H](C)CC)NC1=O` [compound 221] ({CH2CO}-AV[NMePhe(3-Cl)]V[Trp(7-aza)]NYY(Carboxymethyl)IIE(NH(CH2CH2O)8Me)RE(NH(CH2CH2O)8Me)[NMeY]C[PEG4]-NH2; thioether N-15), for which the dissociation constant Kd fell in the range of 1 to 100 nM.
Then `CC[C@H](C)[C@@H]1NC(=O)[C@H](Cc2ccc(OCC(=O)O)cc2)NC(=O)[C@H](Cc2ccc(N)nc2)NC(=O)[C@H](CC(N)=O)NC(=O)[C@H](Cc2cn(CC(=O)O)c3ccccc23)NC(=O)[C@H](C(C)C)NC(=O)[C@H](Cc2cccc(Cl)c2)N(C)C(=O)[C@H](C(C)C)NC(=O)[C@H](C)NC(=O)CSC[C@@H](C(=O)NCCOCCOCCOCCOCCC(N)=O)NC(=O)[C@H](Cc2ccc(O)cc2)N(C)C(=O)[C@H](Cc2ccncc2)NC(=O)[C@H](CCCNC(=N)N)NC(=O)[C@H](CCC(=O)NCCOCCOCCOCCOCCOCCOCCOCCOC)NC(=O)[C@H]([C@@H](C)CC)NC1=O` [compound 222], with 1 to 100 nM; and `CC[C@H](C)[C@@H]1NC(=O)[C@H](Cc2ccc(OCC(=O)O)cc2)NC(=O)[C@H](Cc2ccc(N)nc2)NC(=O)[C@H](CC(N)=O)NC(=O)[C@H](Cc2cn(CC(=O)O)c3ccccc23)NC(=O)[C@H](C(C)C)NC(=O)[C@H](Cc2cccc(Cl)c2)N(C)C(=O)[C@H](C(C)C)NC(=O)[C@H](C)NC(=O)CSC[C@@H](C(=O)NCCOCCOCCOCCOCCC(N)=O)NC(=O)[C@H](Cc2ccc(O)cc2)N(C)C(=O)[C@H](Cc2cccc(C(=O)O)c2)NC(=O)[C@H](CCCNC(=N)N)NC(=O)[C@H](CCC(=O)NCCOCCOCCOCCOCCOCCOCCOCCOC)NC(=O)[C@H]([C@@H](C)CC)NC1=O` [compound 223] ({CH2CO}-AV[NMePhe(3-Cl)]V[Trp(1-CH2COOH)]N[3Pal(6-NH2)]Y(Carboxymethyl)IIE(NH(CH2CH2O)8Me)R[Phe(3-COOH)][NMeY]C[PEG4]-NH2; thioether N-15), with 1 to 100 nM; and `CC[C@H](C)[C@@H]1NC(=O)[C@H](Cc2ccc(OCC(=O)O)cc2)NC(=O)[C@H](Cc2ccc(N)nc2)NC(=O)[C@H](CC(N)=O)NC(=O)[C@H](Cc2c[nH]c3ncccc23)NC(=O)[C@H](C(C)C)NC(=O)[C@H](Cc2cccc(Cl)c2)N(C)C(=O)[C@H](C(C)C)NC(=O)[C@H](C)NC(=O)CSC[C@@H](C(=O)NCCOCCOCCOCCOCCC(N)=O)NC(=O)[C@H](Cc2ccc(O)cc2)N(C)C(=O)[C@H](Cc2ccncc2)NC(=O)[C@H](CCCNC(=N)N)NC(=O)[C@H](CCC(=O)NCCOCCOCCOCCOCCOCCOCCOCCOC)NC(=O)[C@H]([C@@H](C)CC)NC1=O` [compound 224], with 1 to 100 nM.
The figure for `CC[C@H](C)[C@@H]1NC(=O)[C@H](Cc2ccc(OCC(=O)O)cc2)NC(=O)[C@H](Cc2ccc(O)cc2)NC(=O)[C@H](CC(N)=O)NC(=O)[C@H](Cc2c[nH]c3ncccc23)NC(=O)[C@H](C(C)C)NC(=O)[C@H](Cc2cccc(Cl)c2)N(C)C(=O)[C@H](C(C)C)NC(=O)[C@H](C)NC(=O)CSC[C@@H](C(=O)NCCOCCOCCOCCOCCC(N)=O)NC(=O)[C@H](Cc2ccc(O)cc2)N(C)C(=O)[C@H](Cc2cccc(C(=O)O)c2)NC(=O)[C@H](CCCNC(=N)N)NC(=O)[C@H](CCC(N)=O)NC(=O)[C@H]([C@@H](C)CC)NC1=O` [compound 225] is less than 1 nM; for `CC[C@H](C)[C@@H]1NC(=O)[C@H](Cc2ccc(OCC(=O)NCCOCCOCCOCCOCCOCCOCCOCCOC)cc2)NC(=O)[C@H](Cc2ccc(O)cc2)NC(=O)[C@H](CC(N)=O)NC(=O)[C@H](Cc2c[nH]c3ncccc23)NC(=O)[C@H](C(C)C)NC(=O)[C@H](Cc2cccc(Cl)c2)N(C)C(=O)[C@H](C(C)C)NC(=O)[C@H](C)NC(=O)CSC[C@@H](C(=O)NCCOCCOCCOCCOCCC(N)=O)NC(=O)[C@H](Cc2ccc(C(=O)NCCOCCOCCOCCOCCOCCOCCOCCOC)cc2)N(C)C(=O)[C@H](Cc2cccc(C(=O)NCCOCCOCCOCCOCCOCCOCCOCCOC)c2)NC(=O)[C@H](CCC(N)=O)NC(=O)[C@H](CCC(N)=O)NC(=O)[C@H]([C@@H](C)CC)NC1=O` [compound 226] ({CH2CO}-AV[NMePhe(3-Cl)]V[Trp(7-aza)]NYY(X2)IIQQ[X1](NH(CH2CH2O)8Me)[NMePhe(4-COOH)](NH(CH2CH2O)8Me)C[PEG4]-NH2; thioether N-15) it is 1 to 100 nM.
Then `CC[C@H](C)[C@@H]1NC(=O)[C@H](Cc2ccc(OCC(=O)NCCOCCOCCOCCOCCOCCOCCOCCOC)cc2)NC(=O)[C@H](Cc2ccc(O)cc2)NC(=O)[C@H](CC(N)=O)NC(=O)[C@H](Cc2c[nH]c3ncccc23)NC(=O)[C@H](C(C)C)NC(=O)[C@H](Cc2cccc(Cl)c2)N(C)C(=O)[C@H](C(C)C)NC(=O)[C@H](C)NC(=O)CSC[C@@H](C(=O)NCCOCCOCCOCCOCCC(N)=O)NC(=O)[C@H](Cc2ccc(C(=O)NCCOCCOCCOCCOCCOCCOCCOCCOC)cc2)N(C)C(=O)[C@H](Cc2ccncc2)NC(=O)[C@H](CCC(N)=O)NC(=O)[C@H](CCC(N)=O)NC(=O)[C@H]([C@@H](C)CC)NC1=O` [compound 227] ({CH2CO}-AV[NMePhe(3-Cl)]V[Trp(7-aza)]NYY(X2)IIQQ[4Pal][NMePhe(4-COOH)](NH(CH2CH2O)8Me)C[PEG4]-NH2; thioether N-15), with 1 to 100 nM; and `CC[C@H](C)[C@@H]1NC(=O)[C@H](Cc2ccc(OC)cc2)NC(=O)[C@H](Cc2ccc(O)cc2)NC(=O)[C@H](CC(N)=O)NC(=O)[C@H](Cc2c[nH]c3ncccc23)NC(=O)[C@H](C(C)C)NC(=O)[C@H](Cc2cccc(Cl)c2)N(C)C(=O)[C@H](C(C)C)NC(=O)[C@H](C)NC(=O)CSC[C@@H](C(=O)NCCOCCOCCOCCOCCC(N)=O)NC(=O)[C@H](Cc2ccc(C(=O)NCCOCCOCCOCCOCCOCCOCCOCCOC)cc2)N(C)C(=O)[C@H](Cc2cccc(C(=O)NCCOCCOCCOCCOCCOCCOCCOCCOC)c2)NC(=O)[C@H](CCC(N)=O)NC(=O)[C@H](CCC(N)=O)NC(=O)[C@H]([C@@H](C)CC)NC1=O` [compound 228] ({CH2CO}-AV[NMePhe(3-Cl)]V[Trp(7-aza)]NYY(Me)IIQQ[X1](NH(CH2CH2O)8Me)[NMePhe(4-COOH)](NH(CH2CH2O)8Me)C[PEG4]-NH2; thioether N-15), with 1 to 100 nM.
With `CC[C@H](C)[C@@H]1NC(=O)[C@H](Cc2ccc(OCC(=O)NCCOCCOCCOCCOCCOCCOCCOCCOC)cc2)NC(=O)[C@H](Cc2ccc(O)cc2)NC(=O)[C@H](CC(N)=O)NC(=O)[C@H](Cc2c[nH]c3ncccc23)NC(=O)[C@H](C(C)C)NC(=O)[C@H](Cc2cccc(Cl)c2)N(C)C(=O)[C@H](C(C)C)NC(=O)[C@H](C)NC(=O)CSC[C@@H](C(=O)NCCOCCOCCOCCOCCC(N)=O)NC(=O)[C@H](Cc2ccc(O)cc2)N(C)C(=O)[C@H](Cc2cccc(C(=O)NCCOCCOCCOCCOCCOCCOCCOCCOC)c2)NC(=O)[C@H](CCC(N)=O)NC(=O)[C@H](CCC(N)=O)NC(=O)[C@H]([C@@H](C)CC)NC1=O` [compound 229] ({CH2CO}-AV[NMePhe(3-Cl)]V[Trp(7-aza)]NYY(X2)IIQQ[X1](NH(CH2CH2O)8Me)[NMeY]C[PEG4]-NH2; thioether N-15), the dissociation constant (Kd) was 1 to 100 nM.
In the case of `CC[C@H](C)[C@@H]1NC(=O)[C@H](Cc2ccc(OCC(=O)O)cc2)NC(=O)[C@H](Cc2ccc(O)cc2)NC(=O)[C@H](CC(N)=O)NC(=O)[C@H](Cc2c[nH]c3ncccc23)NC(=O)[C@H](C(C)C)NC(=O)[C@H](Cc2cccc(Cl)c2)N(C)C(=O)[C@H](C(C)C)NC(=O)[C@H](C)NC(=O)CSC[C@@H](C(=O)NCCOCCOCCOCCOCCC(N)=O)NC(=O)[C@H](Cc2ccc(O)cc2)N(C)C(=O)[C@H](Cc2cccc(C(=O)O)c2)NC(=O)[C@H](CCCNC(=N)N)NC(=O)[C@H](CCC(=O)NCCOCCOCCOCCOCCOCCOCCOCCOC)NC(=O)[C@H]([C@@H](C)CC)NC1=O` [compound 230], the Kd is 1 to 100 nM.
